Earlier results, collected in US20250000898A1, “MAGNESIUM OXIDE-CONTAINING PHARMACEUTICAL COMPOSITION FOR TREATING PEDIATRIC CHRONIC FUNCTIONAL CONSTIPATION” (SETOLAS Holdings, Inc., priority 2021, published 2025).

Tests used:
[1] = tested on: children under 15 years of age diagnosed with chronic constipation; conditions: for percentage of patients treated successfully for constipation (success rate for treatment of constipation): children under 15 years, median age 2 years 11 months, 3 weeks (magnesium oxide: 50 mg/kg per day, 20 of 49 cases; lactulose: 9 of 50 cases)
[2] = 50 mg/kg daily, 3 weeks

OC[C@H]1O[C@@H](O[C@@H]2[C@@H](CO)OC(O)(CO)[C@H]2O)[C@H](O)[C@@H](O)[C@H]1O (mixture of isomers) [lactulose]
percentage of patients treated successfully for constipation (success rate for treatment of constipation) [1]: 18%

[O]=[Mg] [magnesium oxide powder, magnesium oxide]
hypermagnesemia [2]: None of the patients exhibited hypermagnesemia | percentage of patients treated successfully for constipation (success rate for treatment of constipation) [1]: 41% | average frequency of defecation ([1]; second and third weeks after administration, 50 mg/kg daily in two divided doses, 3 weeks): 5.5±3.15 | average stool status score (Bristol Stool Scale) ([1]; second and third weeks after administration, 50 mg/kg daily, 3 weeks): 4.90±0.91
